According to patent US8193384B2, “Polymer-bound phosphitylating reagents for the synthesis of organophosphorus compounds” (priority 2005, dated 2012):

What was measured:
[1] = system: complementary chains of modified and unmodified ODNs; experiment: Thermal denaturation studies (UV melting, Tm) of ODN duplexes; format: binding; conditions: for Tm: modified oligomer bound to its complementary unmodified oligomer
[2] = system: mismatched 12-mer modified or unmodified ODNs of 3′-d(CCCCCCCCCCCC); experiment: Base-discriminating properties: UV melting with mismatched ODNs; format: binding; conditions: with mismatched 12-mer modified or unmodified 3′-d(CCCCCCCCCCCC)

| Substance | Tm [1] | ΔTm [1] | further results |
| --- | --- | --- | --- |
| Modified d(AAAAAAAAAAAA) (SEQ ID NO: 1) Containing Diphosphodiester Internucleotide Linkage (DNA, backbone not given here; contains diphosphodiester internucleotide linkage(s), further chemistry not fully specified) [Compound 13] | 39.7 °C | – | melting transition [2]: no melting transition was observed |
| Modified d(ATATATATATAT) (SEQ ID NO: 5) Containing Diphosphodiester Internucleotide Linkage (DNA, backbone not given here; contains a diphosphodiester internucleotide linkage) [Compound 17] | – | +1.8 °C | – |
| Modified d(GGGGGGGGGGGG) (SEQ ID NO: 4) Containing Diphosphodiester Internucleotide Linkage [Compound 16] | – | – | binding affinity towards modified 3′-d(CCCCCCCCCCCC) compared with unmodified 3′-d(CCCCCCCCCCCC) [1]: higher binding affinity |
| Modified d(TATATATATATA) (SEQ ID NO: 6) Containing Diphosphodiester Internucleotide Linkage (DNA, backbone not given here; contains a diphosphodiester internucleotide linkage) [Compound 18] | – | +3.2 °C | – |
| Modified d(TTTTTTTTTTTT) (SEQ ID NO: 2) Containing Diphosphodiester Internucleotide Linkage (diphosphodiester internucleotide linkage) [Compound 14] | 39.5 °C | – | – |
